The molecules below were run on cutaneous anaphylaxis (assay: Passive cutaneous anaphylaxis in rats (method of Ovary), anti-allergic activity). Conditions: Rattus norvegicus; male rats 180-220 g; intravenous, followed immediately by antigen/Evans blue challenge; anti-ovalbumin antiserum ID 3 days before; compounds used as tris(hydroxymethyl)methylamine salts; read-out: ED50 (dose of drug giving 50% inhibition).
Type: in vivo, rat
Protocol: Evans blue dye was injected with the antigen to act as a marker to assess the severity of the local response which is inhibited by anti-allergic compounds. Groups of 7 male rats weighing 180 to 220 g were used in this test.
Preparation of antigen for sensitization (such as alum precipitated ovalbumin) was effected by washing 120 grams of Al(OH)3 gel in 140 mls of saline solution (use of a macerator facilitates mixing). Then, the product was centrifuged at 3,000 r.p.m. for about 10 minutes and the precipitate was responded with 300 mls of albumin egg powder (1.3 mg/ml) in saline solution and allowed to stand for 30 minutes. Then, the mixture was centrifuged at 3,000 r.p.m. for 10 minutes and the wet precipitate was weighed and to each gram weight 1 ml of saline solution was added. The antigen was stored in the refrigerator and was a quantity sufficient for 60 rats for a 3 day sensitization program.
Preparation of antiserum (such as anti-ovalbumin) was effected by injecting 1 ml of the alum precipitated ovalbumin subcutaneously into the rats on days 0, 2 and 4. The rats were bled on day 14 either by cardiac puncture or via the dorsal abdominal aorta and equal quantities of serum from each animal were pooled and thoroughly mixed. 2 ml aliquots were stored at -20° C in plastic tubes.
For sensitization, rats were anaesthetized with Nembutal (40-60 mg/kg i.p.) and were then sensitized by four ID injections (0.1 ml each) on their shaved backs. The animals were then left for a period of three days to develop sensitization.
For the challenge, the sensitized rats were anaesthetized and challenged intravenously via the superficial penile vein with the anti-allergic compound, followed immediately by 1 ml of an antigen/Evans blue mixture (1 mg albumin egg powder in 0.5 ml saline solution plus 0.5 ml of 1% Evans blue). The injections were speeded up by using an automatic 1 ml self filling glass syringe. The "challenged" rats were killed after 30 minutes and their skin on the dorsal surface was removed. The degree and area of blueing, proportional to the anaphylactic reaction, was assessed on a four point scoring system as follows:
1. Total scores for sites, 1, 2, 3 and 4 = X
2. Mean value of X for each group = X
3. X t = X for test group X c = X for control group [formula]
`CCCCCCc1cc(S(C)(=O)=NC(N)=O)cc2c(=O)c3cc(C(=O)O)ccc3oc12` (stereo not shown) [7-(N-carbamoyl-S-methylsulfonimidoyl)-5-(n-hexyl)-xanthone-2-carboxylic acid] showed an ED50 of 0.008 mg/kg. Molecule `CC(=O)N=S(C)(=O)c1ccc2oc3ccc(C(=O)O)cc3c(=O)c2c1` (stereo not shown) [7-(N-acetyl-S-methylsulfonimidoyl)-xanthone-2-carboxylic acid] has an ED50 of 0.065 mg/kg. `CCCCCOc1cc(S(C)(=N)=O)cc2c(=O)c3cc(C(=O)O)ccc3oc12` (stereo not shown) [7-(S-methylsulfonimidoyl)-5-(n-pentyloxy)-xanthone-2-carboxylic acid] gave an ED50 of 0.0035 mg/kg. `CCCCCCc1cc(S(C)(=N)=O)cc2c(=O)c3cc(C(=O)O)ccc3oc12` (stereo not shown) [7-(S-methylsulfonimidoyl)-5-(n-hexyl)-xanthone-2-carboxylic acid] gave an ED50 of 0.0028 mg/kg. In the case of `Cc1ccc(S(=O)(=O)N=S(C)c2ccc3oc4ccc(C(=O)O)cc4c(=O)c3c2)cc1` (stereo not shown) [7-[N-(p-toluenesulfonyl)-S-methylsulfimidoyl]-xanthone-2-carboxylic acid], the ED50 is reported as 0.43 mg/kg. Molecule `CS(=O)(=NC(=O)c1ccccc1)c1ccc2oc3ccc(C(=O)O)cc3c(=O)c2c1` (stereo not shown) [7-(N-benzoyl-S-methylsulfonimidoyl)-xanthone-2-carboxylic acid] has an ED50 of 0.68 mg/kg.

Same assay, conditions: male rats 180-220 g; intravenous, followed immediately by antigen/Evans blue challenge; anti-ovalbumin antiserum ID 3 days before; compounds used as tris(hydroxymethyl)methylamine salts
With `CS(=N)(=O)c1ccc2oc3ccc(C(=O)O)cc3c(=O)c2c1` (stereo not shown) [7-(S-methylsulfonimidoyl)-xanthone-2-carboxylic acid] the “ED50 (dose of drug giving 50% inhibition)” value was 0.033 mg/kg.

Source: patent US4024276A, “Xanthone-2-carboxylic acid compounds” (Roussel-UCLAF, priority 1974, dated 1977)
